pKi: −log10 of the molar value.

The assay addresses T1, NIK (Homo sapiens, UniProt Q99558).
T1 construct: Both assays utilize a truncated form of NIK containing only the catalytic domain; made in house; host or cells: baculovirus expression system (insect cells implied)
Briefly: homogenous time resolved fluorescence (HTRF) assay for NIK Ki measurement. It counts as biochemical. The settings on record: truncated NIK (catalytic domain only), autophosphorylation; 10 nM enzyme; 20, 100, 200 or 500 μM ATP; room temperature, 2 hours; read-out: Ki activity in the homogenous time resolved fluorescence (HTRF) assay for NIK. Background: Time-resolved FRET reads energy transfer from a long-lived donor to a nearby acceptor.

T1 sequence (Q99558 400-655 limits assumed): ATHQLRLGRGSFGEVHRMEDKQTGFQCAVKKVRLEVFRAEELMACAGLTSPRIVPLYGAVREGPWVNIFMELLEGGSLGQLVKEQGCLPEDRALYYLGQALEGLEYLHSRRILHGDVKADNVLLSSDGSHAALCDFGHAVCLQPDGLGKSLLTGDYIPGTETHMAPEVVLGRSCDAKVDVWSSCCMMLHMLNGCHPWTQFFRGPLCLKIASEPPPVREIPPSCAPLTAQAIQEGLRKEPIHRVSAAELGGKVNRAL

By pKi is commonly meant the Ki on a negative log10 scale, so that one unit is a factor of ten. Turning to `COCCN(C)c1ccc(C#C[C@@](C)(O)c2nccs2)cc1Nc1nc(N)ncc1Cl` [Example 154, (R)-4-(3-(2-Amino-5-chloropyrimidin-4-ylamino)-4-((2-methoxyethyl)(methyl)amino)phenyl)-2-(thiazol-2-yl)but-3-yn-2-ol], the negative logarithm of the Ki (pKi) is over 6.00.

As to `CC(O)(C#Cc1ccc(O[C@H]2CCOC2)c(Nc2nc(N)ncc2Cl)c1)c1nccs1` (stereo partly shown) [Example 155], the pKi is over 6.00.

With `Cc1cc(C(C)(O)C#Cc2ccc(O[C@H]3CCOC3)c(Nc3nc(N)ncc3Cl)c2)no1` (stereo partly shown) [Example 156], the negative-log Ki (pKi) is over 6.00.

With `CC(O)(C#Cc1ccc(CN2CCOCC2)c(Nc2nc(N)ncc2Cl)c1)c1nccs1` (stereo not shown) [Example 157, 4-(3-(2-Amino-5-chloropyrimidin-4-ylamino)-4-(morpholinomethyl)phenyl)-2-(thiazol-2-yl)but-3-yn-2-ol], the negative-log Ki (pKi) was over 6.00.

For the compound `Cc1cc(C(C)(O)C#Cc2ccc(CN3CCOCC3)c(Nc3nc(N)ncc3Cl)c2)no1` (stereo not shown) [Example 158, 4-(3-(2-Amino-5-chloropyrimidin-4-ylamino)-4-(morpholinomethyl)phenyl)-2-(5-methylisoxazol-3-yl)but-3-yn-2-ol], the pKi is over 6.00.

In the case of `CC(O)(C#Cc1ccc(O[C@@H]2CCOC2)c(Nc2nc(N)ncc2Cl)c1)c1nccs1` (stereo partly shown) [Example 159], the negative-log Ki (pKi) was over 6.00.

As to `Cc1ccc(C#CC(C)(O)c2nccs2)cc1Nc1nc(N)ncc1Cl` (stereo not shown) [Example 160, 4-(3-(2-Amino-5-chloropyrimidin-4-ylamino)-4-methylphenyl)-2-(thiazol-2-yl)but-3-yn-2-ol], the pKi is over 6.00.

As to `Cc1cc(C(C)(O)C#Cc2ccc(C)c(Nc3nc(N)ncc3Cl)c2)no1` (stereo not shown) [Example 161, 4-(3-(2-Amino-5-chloropyrimidin-4-ylamino)-4-methylphenyl)-2-(5-methylisoxazol-3-yl)but-3-yn-2-ol], the pKi is over 6.00.

As for `C[C@](O)(C#Cc1ccc(CN2CCOCC2)c(Nc2nc(N)ncc2Cl)c1)c1nccs1` [Example 162, (S)-4-(3-(2-Amino-5-chloropyrimidin-4-ylamino)-4-(morpholinomethyl)phenyl)-2-(thiazol-2-yl)but-3-yn-2-ol], the negative-log Ki (pKi) is over 6.00.

`C[C@@](O)(C#Cc1ccc(CN2CCOCC2)c(Nc2nc(N)ncc2Cl)c1)c1nccs1` [Example 163, (R)-4-(3-(2-Amino-5-chloropyrimidin-4-ylamino)-4-(morpholinomethyl)phenyl)-2-(thiazol-2-yl)but-3-yn-2-ol]: the negative logarithm of the Ki (pKi) is over 6.00.

Consider `CN(c1cc(C#CC(C)(O)c2nccs2)ccc1OC1CCOCC1)c1nc(N)ncc1Cl` (stereo not shown) [Example 165, 4-(3-((2-amino-5-chloropyrimidin-4-yl)(methyl)amino)-4-(tetrahydro-2H-pyran-4-yloxy)phenyl)-2-(thiazol-2-yl)but-3-yn-2-ol], for which the negative-log Ki (pKi) is over 6.00.

As for `CC(O)(C#Cc1ccc(F)c(Nc2nc(N)ncc2Cl)c1)c1nccs1` (stereo not shown) [Example 166, 4-(3-(2-Amino-5-chloropyrimidin-4-ylamino)-4-fluorophenyl)-2-(thiazol-2-yl)but-3-yn-2-ol], the pKi was over 6.00.

For the compound `Cc1cc(C(C)(O)C#Cc2ccc(F)c(Nc3nc(N)ncc3Cl)c2)no1` (stereo not shown) [Example 167, 4-(3-(2-Amino-5-chloropyrimidin-4-ylamino)-4-fluorophenyl)-2-(5-methylisoxazol-3-yl)but-3-yn-2-ol], the pKi was over 6.00.

With `CC(O)(C#Cc1cncc(C(=O)Nc2ccncn2)c1)c1nccs1` (stereo not shown) [Example 168, 5-(3-Hydroxy-3-(thiazol-2-yl)but-1-ynyl)-N-(pyrimidin-4-yl)nicotinamide], the pKi was 4.52 to 6.00.

`CC(O)(C#Cc1ccc(O[C@H]2CCOC2)c(Nc2ccncc2)c1)c1nccs1` (stereo partly shown) [Example 169]: the pKi was 4.52 to 6.00.

For the compound `Cc1ccc(C#CC(C)(O)c2nccs2)cc1Nc1ccc(C#N)cn1` (stereo not shown) [Example 170, 6-(5-(3-Hydroxy-3-(thiazol-2-yl)but-1-ynyl)-2-methylphenylamino)nicotinonitrile], the pKi is 4.52 to 6.00.

`CC(O)(C#Cc1ccc(OC2CCOCC2)c(Nc2ncncc2Cl)c1)c1nccs1` (stereo not shown) [Example 171, 4-(3-(5-Chloropyrimidin-4-ylamino)-4-(tetrahydro-2H-pyran-4-yloxy)phenyl)-2-(thiazol-2-yl)but-3-yn-2-ol]: the negative-log Ki (pKi) was over 6.00.

With `Cc1ccc(C#CC(C)(O)c2nccs2)cc1Nc1ccncc1` (stereo not shown) [Example 172, 4-(4-Methyl-3-(pyridin-4-ylamino)phenyl)-2-(thiazol-2-yl)but-3-yn-2-ol], the pKi is 4.52 to 6.00.

With `CC(O)(C#Cc1cccc(Nc2ccncn2)n1)c1nccs1` (stereo not shown) [Example 173, 4-(6-(pyrimidin-4-ylamino)pyridin-2-yl)-2-(thiazol-2-yl)but-3-yn-2-ol], the pKi was over 6.00.

Turning to `CC(O)(C#Cc1cccc(Nc2ccncc2C(F)(F)F)n1)c1nccs1` (stereo not shown) [Example 174, 2-(thiazol-2-yl)-4-(6-(3-(trifluoromethyl)pyridin-4-ylamino)pyridin-2-yl)but-3-yn-2-ol], the pKi is 4.52 to 6.00.

For `CC(O)(C#Cc1cccc(N(CCN2CCOCC2)c2ccncn2)n1)c1nccs1` (stereo not shown) [Example 175, 4-(6-((2-morpholinoethyl)(pyrimidin-4-yl)amino)pyridin-2-yl)-2-(thiazol-2-yl)but-3-yn-2-ol], the pKi was 4.52 to 6.00.

For the compound `Cc1cc([C@](C)(O)C#Cc2ccc(F)c(Nc3nc(N)ncc3Cl)c2)no1` [Example 176, (R)-4-(3-(2-Amino-5-chloropyrimidin-4-ylamino)-4-fluorophenyl)-2-(5-methylisoxazol-3-yl)but-3-yn-2-ol], the pKi is over 6.00.

As to `Cc1cc([C@@](C)(O)C#Cc2ccc(F)c(Nc3nc(N)ncc3Cl)c2)no1` [Example 177, (S)-4-(3-(2-amino-5-chloropyrimidin-4-ylamino)-4-fluorophenyl)-2-(5-methylisoxazol-3-yl)but-3-yn-2-ol], the pKi is 4.52 to 6.00.

Take `CN1CC2(C1)CN(c1nc(N)ncc1Cl)c1cc(C#CC3(O)CCCC3)ccc12` [Example 180, 1-((1′-(2-amino-5-chloropyrimidin-4-yl)-1-methylspiro[azetidine-3,3′-indoline]-6′-yl)ethynyl)cyclopentanol]: the negative logarithm of the Ki (pKi) is over 6.00.

`COCCN1CC2(C1)CN(c1nc(N)ncc1Cl)c1cc(C#C[C@@](C)(O)c3nccs3)ccc12` [Example 183, (2R)-4-(1′-(2-amino-5-chloropyrimidin-4-yl)-1-(2-methoxyethyl)spiro[azetidine-3,3′-indoline]-6′-yl)-2-(thiazol-2-yl)but-3-yn-2-ol]: the pKi is over 6.00.

On to `C[C@@](O)(C#Cc1ccc2c(c1)N(c1nc(N)ncc1Cl)CC21CN(CCS(C)(=O)=O)C1)c1nccs1` [Example 184, (R)-4-(1′-(2-amino-5-chloropyrimidin-4-yl)-1-(2-(methylsulfonyl)ethyl)spiro[azetidine-3,3′-indoline]-6′-yl)-2-(thiazol-2-yl)but-3-yn-2-ol], for which the negative logarithm of the Ki (pKi) is over 6.00.

In the case of `CN1CCC2(CC1)CN(c1nc(N)ncc1Cl)c1cc(C#CC3(O)CCCC3)ccc12` [Example 185, 1-((1-(2-Amino-5-chloro-4-pyrimidinyl)-1′-methyl-1,2-dihydrospiro[indole-3,4′-piperidin]-6-yl)ethynyl)cyclopentanol], the pKi was over 6.00.

For `CN1CCC2(CC1)CN(c1nc(N)ncc1F)c1cc(C#CC3(O)CCCC3)ccc12` [Example 186, 1-((1-(2-amino-5-fluoropyrimidin-4-yl)-1′-methylspiro[indoline-3,4′-piperidine]-6-yl)ethynyl)cyclopentanol], the negative-log Ki (pKi) is over 6.00.

(Values after US20110086834A1, “ALKYNYL ALCOHOLS AS KINASE INHIBITORS” (AMGEN INC., priority 2008, published 2011).)
